Assay results as given in patent US20250152567A1, “COMPOUNDS FOR USE IN THE TREATMENT OF DYSTROPHINOPATHIES” (SOM INNOVATION BIOTECH, S.A., priority 2022, published 2025).
Where a name gives a salt, the structure may show the parent alone.

Columns and labels:
utrophin-A expression = test: Utrophin upregulation in mdx^5cv myotubes (qRT-PCR for utrophin-A expression); assay type: cell-based; conditions: Mus musculus, Myotube, 72 h, 3 days, RT-PCR, read-out: Utrophin upregulation (average of fold change utrophin vs DMSO ± sem)
Protocol: Isolation of satellite cell-derived primary myoblasts was performed via cell-surface antibodies and magnetic separation as previously described, and cultured for their expansion (Motohashi et al., J Vis Exp. 2014 Apr. 8; (86): 50846). Briefly, after collagenase (Worthington, CLS-2) treatment, dissociated cells from mdx^5cv mouse hindlimb muscle were incubated with anti-CD31 monoclonal antibody conjugated to phycoerythrin (eBioscience, 12-0311), anti-CD45 monoclonal antibody conjugated to phycoerythrin (eBioscience, 30-F11), anti-Scal monoclonal antibody conjugated to phycoerythrin (eBioscience, Dec-81) and anti-Integrin a7 (MBL International, ABIN487462), followed by anti-PE microbeads (Miltenyi Biotec, 130-048-801), and then performed LD column (Miltenyi Biotec, 130-042-901) separation. Negative cell populations were incubated with anti-Mouse IgG beads (Miltenyi Biotec, 130-048-402), and then MS column (Miltenyi Biotec, 130-042-201) separation was performed to isolate Integrin a7 (+) satellite cells. Satellite cell-derived mdx^5cv myoblasts were maintained in culture on collagen coated plates in myoblast medium containing 20% FBS and 20 ng/ml bFGF (Invitrogen, PHG0263) in HAM's-F10 medium. Cell cultures were maintained in a humidified incubator at 37° C. with 5% CO2 and 5% 02. The mdx^5cv myoblasts were induced to differentiate into multinucleated myotubes after low serum conditions (DMEM supplemented with 5% horse serum).
Halofuginone was obtained from Selleck. Veliflapon and cloricromen HCl were obtained from Sigma. Fabomotizole HCl was obtained from MedChemExpress. Difenpiramide was obtained from Enamine. Amopyroquine and alpelisib were obtained from Carbosynth. Benorilate and xipamide were obtained from Fluorochem. Altizide was obtained from Toronto Research Chemicals. All chemical compounds were dissolved with 100% DMSO to adjust to 10 mM stock solutions.
Every day compounds were added to mdx^5cv myotubes at different concentrations (0.01 to 10 μM) by replacement of the differentiation medium. After 3 days compound exposure, cells were harvested for RNA preparation by TRIzol reagent (15596026, ThermoFisher Scientific). Isolated RNA was used for cDNA synthesis using the Transcriptor First Strand cDNA synthesis kit (04379012001, Roche Molecular Diagnostics) using random primers. Diluted DMSO solution was used as a negative control vehicle. qRT-PCR assay for utrophin-A expression was performed using the following primers: Utro-F1 (Forward) 5′-[…]-3′ (SEQ ID NO: 1) and Utro-R1 (Reverse) 5′-[…]-3′ (SEQ ID NO: 2). 18S rRNA was used as an internal control, with the following primers: 18S-F1 (Forward) 5′-[…]-3′ (SEQ ID NO: 3) and 18S-R1 (Reverse) 5′-[…]-3′ (SEQ ID NO: 4). qPCR was performed using GoTaq qPCR Master Mix (A6001, Promega). All primers were synthesized as custom DNA oligos from Integrated DNA technologies (IDT). Analysis was done using the ACt method. Statistical analysis was performed with at least three independent experiments with between 2 and 4 replicates in each experiment.
The chemical compounds were tested in mdx^5cv myotubes at different concentrations for 3 days. Halofuginone was used as a positive control for the utrophin up-regulation.

[1] = tested on: DMD patient-derived 3D skeletal muscle tissues; test: Force of muscle contraction in response to electrical pulse stimulation in human 3D skeletal muscle tissues; assay type: cell-based; conditions: 10 μM; for tetanic index (maximal tetanic specific force / maximal twitch specific force): 2 days (FIG. 3); for maximal twitch contractile force in response to electrical stimulation / tetanic contractile force in response to electrical stimulation: 2 days; for maximal twitch contractile force in response to electrical stimulation: 1 Hz EPS, compared with DMSO treated cells (FIG. 1); for tetanic contractile force in response to electrical stimulation: 50 Hz EPS, compared with DMSO treated cells (FIG. 2)
Protocol: Fabrication of Human 3D Skeletal Muscle Tissues and Treatment Human 3D skeletal muscle tissues were fabricated using polydimethylsiloxane (PDMS; Sylgard 184 silicone elastomer kit, Dow Corning) casting molds developed and fabricated as described in Fernández-Costa et al. 2022. Briefly, the casting molds design consists of a square-shaped pool, where the cells/hydrogel solution is seeded, and two vertical, flexible PDMS pillars. PDMS casting molds were prepared for muscle cell culture by first cleaning them by sonication on water with soap, 2-propanol, and Mili-Q water and sterilized with UV light for 15 min. It was followed by 1 h treatment with 1% Plurionic® F-127 (Sigma-Aldrich) solution in cold PBS (100 μl/well) at 4° C. Human 3D skeletal muscle tissues were generated using Immortalized human muscle satellite cells (iHuMSCs) from a DMD patient (DMD 2, clone G82) (Massenet et al. 2020). iHuMSCs were cultured in growth medium (skeletal muscle basal medium (PromoCell GmbH), skeletal muscle supplemental mix (PromoCell GmbH), 10% Fetal Bovine Serum (FBS) (Gibco™), 100 U/mL penicillin and 100 μg/ml streptomycin (Gibco™)). iHuMSCs were released from culture flasks via mild trypsinization. Cells were encapsulated at 2.5×10^7 cells/ml in a cell/hydrogel mixture of 30% v/v Corning® Matrigel® Growth Factor Reduced (GFR) Basement Membrane Matrix (Corning®), 2 units of thrombin from human plasma (Sigma-Aldrich) and 4 mg/mL of fibrinogen from human plasma (50% v/v) (Sigma-Aldrich). 35 μl was pipetted within each PDMS casting mold using cool tips to avoid premature polymerization.
The cell/hydrogel mixture was polymerized for 30 min at 37° C. followed by incubation in growth medium containing 1 mg/mL of 6-aminocaproic acid (ACA) (Sigma-Aldrich). ACA works as an antifibrinolytic, which avoids fibrin depolymerization. They were kept in growth media for two days and then switched to differentiation medium (Dulbecco's Modified Eagle Medium, high glucose, GlutaMAX™ Supplement (Gibco™), containing 1% KnockOut™ Serum replacement (Gibco™), 1% Insulin-Transferrin-Selenium-Ethanolamine (Gibco™) and 1% Penicillin-Streptomycin-Glutamine (Gibco™)) containing 1 mg/mL of ACA for seven days. Half of the volume of differentiation medium was replaced every two days. After five days of differentiation, the medium was replaced by differentiation medium with the drugs at 10 μM and 0.01% DMSO final concentration. The treatment was kept for 48 hours.
Human 3D skeletal muscle tissues were electrically stimulated after seven days of differentiation to induce muscle contraction. A custom-made device consisted of a 12-well plate with two graphite electrodes per well located on the lid was used to perform the EPS. PDMS casting molds were placed on a 12-well plate with fresh differentiation medium. The plate was placed on a Zeiss Axio Observer Z1/7 outfitted with the XL S1 cell incubator at 37° C. and 5% CO2. The device was connected to a pulse generator (Multifunction Generator WF1974, NF Corporation), and tissues were stimulated with electrical square-wave pulses of 1 V/mm, 1 ms of pulse width, and frequencies varying from 1 to 50 Hz. The contractibility in response of EPS of 1 Hz of frequency was evaluated to study twitch contraction dynamics. On the other hand, 50 Hz of frequency was applied to induce tetanic contractions.
Videos of the movement of the pillar of the casting molds in response to the muscle contractions were taken with a ZEISS Axio Observer Z1/7 microscope. Cross-sectional area and location of the tissues on the axis of the pillars were also recorded during the assay. Videos were analyzed using a custom-made Python script and the specific force performed from the tissues was calculated applying […] together with the calculated displacement of the pillar as done in Mestre et al. 2018. Tetanic index was calculated as the ratio between the maximal tetanic specific force divided by the maximal twitch specific force. […]

Cc1nc(NC(=O)N2CCC[C@H]2C(N)=O)sc1-c1ccnc(C(C)(C)C(F)(F)F)c1 [Alpelisib]
fold induction at 0.1 µM (utrophin-A expression): 1.08 ± 0.09 | fold induction at 1 µM (utrophin-A expression): 1.45 ± 0.11 | fold induction at 10 µM (utrophin-A expression): 1.4 ± 0.13

C=CCSCC1Nc2cc(Cl)c(S(N)(=O)=O)cc2S(=O)(=O)N1 (stereo not drawn) [Altizide]
fold induction at 0.1 µM (utrophin-A expression): 1.09 ± 0.07 | fold induction at 1 µM (utrophin-A expression): 1.33 ± 0.09 | fold induction at 10 µM (utrophin-A expression): 1.33 ± 0.09

Oc1ccc(Nc2ccnc3cc(Cl)ccc23)cc1CN1CCCC1 [Amopyroquine]
fold induction at 0.1 µM (utrophin-A expression): 1.23 ± 0.11 | fold induction at 1 µM (utrophin-A expression): 1.1 ± 0.14 | fold induction at 10 µM (utrophin-A expression): 1.23 ± 0.37

CC(=O)Nc1ccc(OC(=O)c2ccccc2OC(C)=O)cc1 [Benorilate]
fold induction at 0.1 µM (utrophin-A expression): 1.16 ± 0.12 | fold induction at 1 µM (utrophin-A expression): 1.04 ± 0.16 | fold induction at 10 µM (utrophin-A expression): 1.58 ± 0.29

CCOC(=O)COc1ccc2c(C)c(CCN(CC)CC)c(=O)oc2c1Cl [Cloricromen hydrochloride, Cloricromen]
fold induction at 0.1 µM (utrophin-A expression): 1.06 ± 0.19 | fold induction at 1 µM (utrophin-A expression): 1.07 ± 0.22 | fold induction at 10 µM (utrophin-A expression): 1.34 ± 0.13

O=C(Cc1ccc(-c2ccccc2)cc1)Nc1ccccn1 [Difenpiramide]
fold induction at 0.1 µM (utrophin-A expression): 1.24 ± 0.13 | fold induction at 1 µM (utrophin-A expression): 1.1 ± 0.21 | fold induction at 10 µM (utrophin-A expression): 1.23 ± 0.21 | tetanic index (maximal tetanic specific force / maximal twitch specific force) [1]: significant increase | maximal twitch contractile force in response to electrical stimulation [1]: increase | tetanic contractile force in response to electrical stimulation [1]: increase

CCOc1ccc2[nH]c(SCCN3CCOCC3)nc2c1 [Fabomotizole hydrochloride, Fabomotizole]
fold induction at 0.1 µM (utrophin-A expression): 1.34 ± 0.07 | fold induction at 1 µM (utrophin-A expression): 1.04 ± 0.1 | fold induction at 10 µM (utrophin-A expression): 1.34 ± 0.19

O=C(CC1NCCCC1O)Cn1cnc2cc(Br)c(Cl)cc2c1=O (stereo not drawn) [Halofuginone]
fold induction at 0.1 µM (utrophin-A expression): 1.44 ± 0.37 | fold induction at 1 µM (utrophin-A expression): 1.24 ± 0.1 | fold induction at 10 µM (utrophin-A expression): 1.3 ± 0.04

O=C(O)[C@@H](c1ccc(OCc2ccc3ccccc3n2)cc1)C1CCCC1 [Veliflapon]
fold induction at 0.1 µM (utrophin-A expression): 1.43 ± 0.24 | fold induction at 1 µM (utrophin-A expression): 1.35 ± 0.02 | fold induction at 10 µM (utrophin-A expression): 1.05 ± 0.15 | tetanic index (maximal tetanic specific force / maximal twitch specific force) [1]: significant increase | maximal twitch contractile force in response to electrical stimulation [1]: increase | tetanic contractile force in response to electrical stimulation [1]: increase

Cc1cccc(C)c1NC(=O)c1cc(S(N)(=O)=O)c(Cl)cc1O [Xipamide]
fold induction at 0.1 µM (utrophin-A expression): 1.25 ± 0.18 | fold induction at 1 µM (utrophin-A expression): 1.05 ± 0.17 | fold induction at 10 µM (utrophin-A expression): 1.18 ± 0.1
